From US20250231185A1, “Coronavirus T Cell Epitopes, Megapools and Uses Thereof” (La Jolla Institute for Immunology, priority 2021, published 2025)
Like-named read-outs stand apart in the source and are kept apart here.

Key:
CD8+ T cells [1] = assay: Meta-analysis of published SARS-CoV-2 CD8 T cell epitope data curated in the IEDB (25 studies); type: cell-based, human
CD8+ T cells [2] = settings: cited from earlier work
[3] = SARS-CoV-2-derived CD8 epitopes, dominant = recognized by 3 or more donors/different studies
[4] = T cell type (CD4 or CD8) recognizing the SARS-CoV-2 epitope
[5] = SARS-CoV-2 Ag S, CD8 epitopes, dominant = recognized by 3 or more donors/different studies
[6] = SARS-CoV-2 Ag S, T cell type recognizing the epitope
[7] = CD8-restricted SARS-CoV-2 epitopes, Yes = recognized by 3 or more donors/different studies
[8] = CD8S (D) Megapool, antigen S, dominant = recognized in 3 or more donors/studies
[9] = CD8 epitopes, Yes = recognized by 3 or more donors/different studies

Substance	Dominant (CD8+ T cells [1]; [3])	Restriction (CD8+ T cells [2]; [4])	Dominant (CD8+ T cells [1]; [5])	Restriction (CD8+ T cells [2]; [6])	further results
1055 (AIMTRCLAV) [compound 1055]	Yes (more dominant epitopes are defined by being recognized by 3 or more donors/different studies)	CD8			
930 (YTMADLVYAL) [compound 930]	Yes (more dominant epitopes are defined by being recognized by 3 or more donors/different studies)	CD8			
1033 (SSNVANYQK) [compound 1033]	Yes (more dominant epitopes are defined by being recognized by 3 or more donors/different studies)	CD8			
1365 (STECSNLLLQY) [compound 1365]			Yes (more dominant epitopes are defined by being recognized by 3 or more donors/different studies)	CD8	
1362 (TEILPVSMTK) [compound 1362]			Yes (more dominant epitopes are defined by being recognized by 3 or more donors/different studies)	CD8	
913 (YTELEPPCRF) [compound 913]	Yes (more dominant epitopes are defined by being recognized by 3 or more donors/different studies)	CD8			
1462 (KWPWYIWLGF) [compound 1462]			Yes (more dominant epitopes are defined by being recognized by 3 or more donors/different studies)	CD8	
1347 (SPRRARSVA) [compound 1347]			Yes (more dominant epitopes are defined by being recognized by 3 or more donors/different studies)	CD8	
1065 (MMISAGFSL) [compound 1065]	Yes (more dominant epitopes are defined by being recognized by 3 or more donors/different studies)	CD8			
1008 (RILGAGCFV) [compound 1008]	Yes (more dominant epitopes are defined by being recognized by 3 or more donors/different studies)	CD8			
922 (DLKGKYVQI) [compound 922]	Yes (more dominant epitopes are defined by being recognized by 3 or more donors/different studies)	CD8			
1361 (FTISVTTEIL) [compound 1361]			Yes (more dominant epitopes are defined by being recognized by 3 or more donors/different studies)	CD8	
1386 (LTDEMIAQY) [compound 1386]			Yes (more dominant epitopes are defined by being recognized by 3 or more donors/different studies)	CD8	
1084 (MLWCKDGHV) [compound 1084]	Yes (more dominant epitopes are defined by being recognized by 3 or more donors/different studies)	CD8			
951 (FVDGVPFVV) [compound 951]	Yes (more dominant epitopes are defined by being recognized by 3 or more donors/different studies)	CD8			
1366 (TECSNLLLQY) [compound 1366]			Yes (more dominant epitopes are defined by being recognized by 3 or more donors/different studies)	CD8	
964 (RQLLFVVEV) [compound 964]	Yes (more dominant epitopes are defined by being recognized by 3 or more donors/different studies)	CD8			
905 (ALWEIQQV) [compound 905]	Yes (more dominant epitopes are defined by being recognized by 3 or more donors/different studies)	CD8			
1389 (MIAQYTSAL) [compound 1389]			Yes (more dominant epitopes are defined by being recognized by 3 or more donors/different studies)	CD8	
1342 (IGAEHVNNSY) [compound 1342]			Yes (more dominant epitopes are defined by being recognized by 3 or more donors/different studies)	CD8	
1029 (KLNVGDYFV) [compound 1029]	Yes (more dominant epitopes are defined by being recognized by 3 or more donors/different studies)	CD8			
961 (ISDYDYYRY) [compound 961]	Yes (more dominant epitopes are defined by being recognized by 3 or more donors/different studies)	CD8			
914 (VTDTPKGPK) [compound 914]	Yes (more dominant epitopes are defined by being recognized by 3 or more donors/different studies)	CD8			
995 (FYAYLRKHF) [compound 995]	Yes (more dominant epitopes are defined by being recognized by 3 or more donors/different studies)	CD8			
1019 (VLQAVGACV) [compound 1019]	Yes (more dominant epitopes are defined by being recognized by 3 or more donors/different studies)	CD8			
939 (LLMPILTLT) [compound 939]	Yes (more dominant epitopes are defined by being recognized by 3 or more donors/different studies)	CD8			
1461 (QYIKWPWYI) [compound 1461]			Yes (more dominant epitopes are defined by being recognized by 3 or more donors/different studies)	CD8	
1351 (VASQSIIAY) [compound 1351]			Yes (more dominant epitopes are defined by being recognized by 3 or more donors/different studies)	CD8	

Substance	Dominant (CD8+ T cells [1]; [3])	Restriction (CD8+ T cells [2]; [4])	Dominant (CD8+ T cells [1]; [5])	Restriction (CD8+ T cells [2]; [6])	further results
1057 (ALLADKFPV) [compound 1057]	Yes (more dominant epitopes are defined by being recognized by 3 or more donors/different studies)	CD8			
1056 (IEYPIIGDEL) [compound 1056]	Yes (more dominant epitopes are defined by being recognized by 3 or more donors/different studies)	CD8			
992 (DTDFVNEFY) [compound 992]	Yes (more dominant epitopes are defined by being recognized by 3 or more donors/different studies)	CD8			
1401 (AQALNTLVKQL) [compound 1401]			Yes (more dominant epitopes are defined by being recognized by 3 or more donors/different studies)	CD8	
1020 (LVLSVNPYV) [compound 1020]	Yes (more dominant epitopes are defined by being recognized by 3 or more donors/different studies)	CD8			
931 (TMADLVYAL) [compound 931]	Yes (more dominant epitopes are defined by being recognized by 3 or more donors/different studies)	CD8			
1319 (QPYRVVVL) [compound 1319]			Yes (more dominant epitopes are defined by being recognized by 3 or more donors/different studies)	CD8	
1303 (NYNYLYRLF) [compound 1303]			Yes (more dominant epitopes are defined by being recognized by 3 or more donors/different studies)	CD8	
1428 (APHGVVFLHV) [compound 1428]			Yes (more dominant epitopes are defined by being recognized by 3 or more donors/different studies)	CD8	
1352 (SIIAYTMSL) [compound 1352]			Yes (more dominant epitopes are defined by being recognized by 3 or more donors/different studies)	CD8	
1379 (LLFNKVTLA) [compound 1379]			Yes (more dominant epitopes are defined by being recognized by 3 or more donors/different studies)	CD8	
1421 (YHLMSFPQSA) [compound 1421]			Yes (more dominant epitopes are defined by being recognized by 3 or more donors/different studies)	CD8	
1053 (TYACWHHSI) [compound 1053]	Yes (more dominant epitopes are defined by being recognized by 3 or more donors/different studies)	CD8			
1192 (LEYHDVRVVL) [compound 1192]					Dominant (CD8+ T cells [1]; [7]): Yes (more dominant epitopes are defined by being recognized by 3 or more donors/different studies)
1233 (KSWMESEFRVY) [compound 1233]					Dominant (CD8+ T cells [1]; [7]): Yes (more dominant epitopes are defined by being recognized by 3 or more donors/different studies)
851 (TPKYKFVRI) [compound 851]	Yes (more dominant epitopes are defined by being recognized by 3 or more donors/different studies)				
1260 (WTAGAAAYYVGY) [compound 1260]					Dominant (CD8+ T cells [1]; [7]): Yes (more dominant epitopes are defined by being recognized by 3 or more donors/different studies)
1502 (LLFNKVTLA) [compound 1502]					Dominant (CD8+ T cells [1]; [8]): Yes (more dominant epitopes are defined by being recognized by 3 or more donors/different studies)
1266 (YLQPRTFLL) [compound 1266]					Dominant (CD8+ T cells [1]; [7]): Yes (more dominant epitopes are defined by being recognized by 3 or more donors/different studies)
1152 (YYQLYSTQL) [compound 1152]					Dominant (CD8+ T cells [1]; [7]): Yes (more dominant epitopes are defined by being recognized by 3 or more donors/different studies)
1487 (NLDSKVGGNY) [compound 1487]					Dominant (CD8+ T cells [1]; [8]): Yes (more dominant epitopes are defined by being recognized by 3 or more donors/different studies)
1107 (FVRATATIPI) [compound 1107]					Dominant (CD8+ T cells [1]; [7]): Yes (more dominant epitopes are defined by being recognized by 3 or more donors/different studies)
1117 (ITLKKRWQLAL) [compound 1117]					Dominant (CD8+ T cells [1]; [7]): Yes (more dominant epitopes are defined by being recognized by 3 or more donors/different studies)
420 (SLVKPSFYV) [compound 420]					Dominant (CD8+ T cells [1]; [9]): Yes (more dominant epitopes are defined by being recognized by 3 or more donors/different studies)
1478 (TPINLVRDL) [compound 1478]					Dominant (CD8+ T cells [1]; [8]): Yes (more dominant epitopes are defined by being recognized by 3 or more donors/different studies)
429 (LQFAYANRNRFLY) [compound 429]					Dominant (CD8+ T cells [1]; [9]): Yes (more dominant epitopes are defined by being recognized by 3 or more donors/different studies)
1132 (YLYALVYFL) [compound 1132]					Dominant (CD8+ T cells [1]; [7]): Yes (more dominant epitopes are defined by being recognized by 3 or more donors/different studies)
